Data on 27 compounds can be found in US20100292255A1, “Therapeutic Compounds and Their Use in Treating Diseases and Disorders” (Myriad Pharmaceuticals, Inc., priority 2007, published 2010).

This experiment concerns the target T1, purified human Hsp90.
T1 construct: purified human Hsp90 (Stressgen, SPP-770)
The experiment in a line: Hsp90 binding assay: displacement of BODIPY-labeled geldanamycin measured by fluorescence polarization. As to conditions: BODIPY-GM 10 nM, Hsp90 30 nM, overnight at room temperature; for IC50: read-out: GM displacement from purified Hsp90 measured by FP IC 50; for GM displacement from purified Hsp90 measured by FP Inhibition by 5 μM compd. (%): 5 μM compound. The procedure:
Binding of the Example Compounds to purified Hsp90 was assayed by measuring the displacement of BODIPY-labeled geldanamycin (BODIPY-GM) from purified human Hsp90, using a fluorescence polarization assay adapted from Kim et al. (J. Biomolec. Screening, 9(5):375-381 (2004)). Compound dilutions (in 100% DMSO) were added to black-bottom 96-well plates (Greiner Bio-One, Monroe, N.C.) in 2% DMSO final, and equal volumes of BODIPY-GM (10 nM final) and purified human Hsp90 (Stressgen, SPP-770; 30 nM final) (Assay Designs, Ann Arbor, Mich.) in assay buffer (20 mM HEPES-KOH pH 7.3, 50 mM KCl, 5 mM MgCl2, 20 mM Na2MoO4, 0.01% NP-40, 0.1 mg/mL bovine gamma globulin [P2045; Invitrogen, Carlsbad, Calif.], 2 mM DTT) were added sequentially to yield a final volume of 50 microliters. Plates were incubated overnight at room temperature. Parallel and perpendicular fluorescence measurements were read (Analyst AD plate reader; LJL BioSystems, Middletown, Conn.) with excitation/emission wavelengths of 485/530 nm. Background fluorescence (buffer only) was subtracted, and fluorescence polarization (FP) values, expressed in mP units, were calculated from parallel and perpendicular fluorescence readings as follows:
FP=(parallel−perpendicular)/(parallel+perpendicular)*1000.
Percent inhibition was calculated by normalizing the FP values to those obtained in parallel reactions containing DMSO and subtracting these normalized values from 100%. Intrinsic compound fluorescence was independently monitored, and FP data points confounded by compound fluorescence were excluded from the analysis.

In the case of `C[C@H](O)C(=O)N1CCC(CCn2c(Sc3cc4occc4cc3Br)nc3c(N)ncnc32)CC1` [Example Compound 199, (2S)-1-[4-(2-{6-Amino-8-[(5-bromo-1-benzofuran-6-yl)thio]-9H-purin-9-yl}ethyl)piperidin-1-yl]-1-oxopropan-2-ol], the IC50 is 190 nM.

Turning to `CC1(C)CCc2cc(Br)c(Sc3nc4c(N)ncnc4n3CCC3CCN(C=O)CC3)cc21` [Example Compound 181, 4-(2-{6-Amino-8-[(6-bromo-3,3-dimethyl-2,3-dihydro-1H-inden-5-yl)thio]-9H-purin-9-yl}ethyl)piperidine-1-carbaldehyde], the IC50 is 1500 nM.

`COCC(=O)N1CCC(CCn2c(Sc3cc4c(cc3C#N)OCO4)nc3c(N)ncnc32)CC1` [compound 33, 6-[(6-Amino-9-{2-[1-(methoxyacetyl)piperidin-4-yl]ethyl}-9H-purin-8-yl)thio]-1,3-benzodioxole-5-carbonitrile]: the IC50 turned out to be 300 nM.

As for `COCC(=O)N1CCC(CCn2cnc(N)c3nc(Sc4cc5c(cc4C#N)OCO5)nc2-3)CC1` [compound 34, 6-[(6-Amino-3-{2-[1-(methoxyacetyl)piperidin-4-yl]ethyl}-3H-purin-8-yl)thio]-1,3-benzodioxole-5-carbonitrile], the “GM displacement from purified Hsp90 measured by FP Inhibition by 5 μM compd. (%)” value is listed as 88.0%.

On to `C[C@H](O)C(=O)N1CCC(CCn2c(Sc3cc4c(cc3Br)OCCO4)nc3c(N)ncnc32)CC1` [compound 88, (2S)-1-[4-(2-{6-Amino-8-[(7-bromo-2,3-dihydro-1,4-benzodioxin-6-yl)thio]-9H-purin-9-yl}ethyl)piperidin-1-yl]-1-oxopropan-2-ol], for which the IC50 was determined as 80 nM.

Regarding `CC(=O)O[C@@H](C)C(=O)N1CCC(CCn2c(Sc3cc4occc4cc3Br)nc3c(N)ncnc32)CC1` [Example Compound 198, (1S)-2-[4-(2-{6-Amino-8-[(5-bromo-1-benzofuran-6-yl)thio]-9H-purin-9-yl}ethyl)piperidin-1-yl]-1-methyl-2-oxoethyl acetate], the IC50 came to 110 nM.

In the case of `Nc1ncnc2c1nc(Sc1cc3ccoc3cc1Br)n2CCC1CCN(C=O)CC1` [Example Compound 176, 4-(2-{6-Amino-8-[(6-bromo-1-benzofuran-5-yl)thio]-9H-purin-9-yl}ethyl)piperidine-1-carbaldehyde], the IC50 is 900 nM.

As to `CCCC(=O)N1CCC(CCn2cnc(N)c3nc(Sc4cc5c(cc4Br)OCCO5)nc2-3)CC1` [compound 83, 8-[(7-Bromo-2,3-dihydro-1,4-benzodioxin-6-yl)thio]-3-[2-(1-butyrylpiperidin-4-yl)ethyl]-3H-purin-6-amine], the “GM displacement from purified Hsp90 measured by FP Inhibition by 5 μM compd. (%)” value worked out at 19.0%.

As for `CO[C@@H](C)C(=O)N1CCC(CCn2c(Sc3cc4c(cc3C#N)OCCO4)nc3c(N)ncnc32)CC1` [compound 43, 7-{[6-Amino-9-(2-{1-[(2S)-2-methoxypropanoyl]piperidin-4-yl}ethyl)-9H-purin-8-yl]thio}-2,3-dihydro-1,4-benzodioxine-6-carbonitrile], the IC50 was found to be 320 nM.

Consider `CS(=O)(=O)N1CCCCC1CCn1c(Sc2cc3c(cc2C#N)OCCO3)nc2c(N)ncnc21` (stereo not drawn) [compound 51, 7-[(6-Amino-9-{2-[1-(methylsulfonyl)piperidin-2-yl]ethyl}-9H-purin-8-yl)thio]-2,3-dihydro-1,4-benzodioxine-6-carbonitrile], for which the IC50 came out at 370 nM.

As for `CC(=O)NC(CCn1c(Sc2cc3c(cc2Br)OCO3)nc2c(N)ncnc21)C1CC1` (stereo not drawn) [compound 137, N-{3-[6-Amino-8-(6-bromo-benzo[1,3]dioxol-5-ylsulfanyl)-purin-9-yl]-1-cyclopropyl-propyl}-acetamide], the IC50 came out at 240 nM.

As to `CC(=O)N1CCC(CCn2cnc(N)c3nc(Sc4cc5c(cc4Cl)OCCO5)nc2-3)CC1` [compound 72, 3-[2-(1-Acetylpiperidin-4-yl)ethyl]-8-[(7-chloro-2,3-dihydro-1,4-benzodioxin-6-yl)thio]-3H-purin-6-amine], the “GM displacement from purified Hsp90 measured by FP Inhibition by 5 μM compd. (%)” value came to 23.0%.

With `COc1ccc(C#N)c(Sc2nc3c(N)ncnc3n2CCC2CCN(C=O)CC2)c1` [compound 79], the IC50 is 700 nM.

With `CC(=O)N1CCC(CCn2c(Sc3cc4c(cc3[N+](=O)[O-])OCCO4)nc3c(N)ncnc32)CC1` [compound 68, 9-[2-(1-Acetylpiperidin-4-yl)ethyl]-8-[(7-nitro-2,3-dihydro-1,4-benzodioxin-6-yl)thio]-9H-purin-6-amine], the IC50 was determined as 50 nM.

As to `N#Cc1cc2c(cc1Sc1nc3c(N)ncnc3n1CCC1CCN(C(=O)[C@@H](N)C(F)(F)F)CC1)OCO2` [compound 133, 6-[(6-Amino-9-{2-[1-(3,3,3-trifluoroalanyl)piperidin-4-yl]ethyl}-9H-purin-8-yl)thio]-1,3-benzodioxole-5-carbonitrile], the IC50 was determined as 505 nM.

In the case of `CO[C@@H](C)C(=O)N1CCC(CCn2c(Sc3cc4c(cc3C#N)OCO4)nc3c(N)ncnc32)CC1` [compound 37, 6-{[6-Amino-9-(2-{1-[(2S)-2-methoxypropanoyl]piperidin-4-yl}ethyl)-9H-purin-8-yl]thio}-1,3-benzodioxole-5-carbonitrile], the IC50 turned out to be 550 nM.

As for `N#Cc1cc2c(cc1Sc1nc3c(N)ncn(CCC4CCN(C(=O)C5CC5(F)F)CC4)c-3n1)OCO2` (stereo not drawn) [compound 40, 6-{[6-Amino-3-(2-{1-[(2,2-difluorocyclopropyl)carbonyl]piperidin-4-yl}ethyl)-3H-purin-8-yl]thio}-1,3-benzodioxole-5-carbonitrile], the “GM displacement from purified Hsp90 measured by FP Inhibition by 5 μM compd. (%)” value is listed as 33.0%.

In the case of `C[C@@H](NC(=O)C(C)(C)C)C(=O)N1CCC(Cn2c(Sc3cc4c(cc3Br)OCCO4)nc3c(N)ncnc32)CC1` [compound 128, N-{(1R)-2-[4-({6-amino-8-[(7-bromo-2,3-dihydro-1,4-benzodioxin-6-yl)thio]-9H-purin-9-yl}methyl)piperidin-1-yl]-1-methyl-2-oxoethyl}-2,2-dimethylpropanamide], the IC50 came to 440 nM.

Consider `N#Cc1cc2c(cc1Sc1nc3c(N)ncn(CCC4CCN(C=O)CC4)c-3n1)CCC2=O` [compound 2, 6-({6-amino-3-[2-(1-formylpiperidin-4-yl)ethyl]-3H-purin-8-yl}thio)-3-oxoindane-5-carbonitrile], for which the “GM displacement from purified Hsp90 measured by FP Inhibition by 5 μM compd. (%)” value was determined as 24.0%.

Turning to `CS(=O)(=O)N1CCCC(CCn2cnc(N)c3nc(Sc4cc5c(cc4C#N)OCCO5)nc2-3)C1` (stereo not drawn) [compound 53, 7-[(6-Amino-3-{2-[1-(methylsulfonyl)piperidin-3-yl]ethyl}-3H-purin-8-yl)thio]-2,3-dihydro-1,4-benzodioxine-6-carbonitrile], the “GM displacement from purified Hsp90 measured by FP Inhibition by 5 μM compd. (%)” value amounted to 60.0%.

As for `COCCOCC(=O)N1CCC(CCn2c(Sc3cc4c(cc3C#N)OCO4)nc3c(N)ncnc32)CC1` [compound 42, 6-{[6-Amino-9-(2-{1-[(2-methoxyethoxy)acetyl]piperidin-4-yl}ethyl)-9H-purin-8-yl]thio}-1,3-benzodioxole-5-carbonitrile], the IC50 amounted to 500 nM.

Regarding `C[C@H](N)C(=O)N1CCC(Cn2c(Sc3cc4c(cc3Br)OCCO4)nc3c(N)ncnc32)CC1` [compound 125, 9-({1-[(2S)-2-Aminopropanoyl]piperidin-4-yl}methyl)-8-[(7-bromo-2,3-dihydro-1,4-benzodioxin-6-yl)thio]-9H-purin-6-amine], the IC50 worked out at 500 nM.

As for `CC(C)(O)C(=O)N1CCC(CCn2cnc(N)c3nc(Sc4cc5c(cc4Br)OCCO5)nc2-3)CC1` [compound 93, l-[4-(2-{6-Amino-8-[(7-bromo-2,3-dihydro-1,4-benzodioxin-6-yl)thio]-3H-purin-3-yl}ethyl)piperidin-1-yl]-2-methyl-1-oxopropan-2-ol], the “GM displacement from purified Hsp90 measured by FP Inhibition by 5 μM compd. (%)” value is 53.0%.

As to `CCCC(=O)N1CCC(CCn2c(Sc3cc4c(cc3Br)OCO4)nc3c(N)ncnc32)CC1` [compound 82, 8-[(6-Bromo-1,3-benzodioxol-5-yl)thio]-9-[2-(1-butyrylpiperidin-4-yl)ethyl]-9H-purin-6-amine], the IC50 turned out to be 295 nM.

On to `COC(=O)c1cc2c(cc1Sc1nc3c(N)ncnc3n1CCC1CCN(C=O)CC1)OCO2` [Example Compound 170, Methyl 6-({6-amino-9-[2-(1-formylpiperidin-4-yl)ethyl]-9H-purin-8-yl}thio)-1,3-benzodioxole-5-carboxylate], for which the IC50 stood at 41 nM.

On to `C[C@@H](N)C(=O)N1CCCC(CCCn2c(Sc3cc4c(cc3Br)OCO4)nc3c(N)ncnc32)C1` (stereo partly drawn) [compound 136, 9-(3-{1-[(2R)-2-Aminopropanoyl]piperidin-3-yl}propyl)-8-[(6-bromo-1,3-benzodioxol-5-yl)thio]-9H-purin-6-amine], for which the IC50 stood at 110 nM.

Take `Cn1nnnc1N1CCC(CCn2cnc(N)c3nc(Sc4cc5c(cc4Br)OCCO5)nc2-3)CC1` [compound 22, 8-[(7-Bromo-2,3-dihydro-1,4-benzodioxin-6-yl)thio]-3-{2-[1-(1-methyl-1H-tetrazol-5-yl)piperidin-4-yl]ethyl}-3H-purin-6-amine]: the “GM displacement from purified Hsp90 measured by FP Inhibition by 5 μM compd. (%)” value worked out at 46.0%.
